The values that follow come from article PMC9080270 (RSC Advances, 2018).

For the assay, the target named is T1, adenosine A1 receptor (A1AR) (Homo sapiens, UniProt P30542).
T1 sequence (P30542 1-326): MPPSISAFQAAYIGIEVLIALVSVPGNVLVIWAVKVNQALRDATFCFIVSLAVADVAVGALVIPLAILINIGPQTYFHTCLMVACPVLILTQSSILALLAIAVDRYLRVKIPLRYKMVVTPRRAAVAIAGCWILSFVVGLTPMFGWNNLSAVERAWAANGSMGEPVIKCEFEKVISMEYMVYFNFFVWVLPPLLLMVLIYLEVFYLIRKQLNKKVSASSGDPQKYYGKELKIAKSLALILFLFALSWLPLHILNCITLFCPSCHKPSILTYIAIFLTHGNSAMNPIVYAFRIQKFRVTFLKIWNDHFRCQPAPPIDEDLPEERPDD
The assay can be described thus: NanoBRET saturation binding in HEK293 cells. In kind it is cell-based. For orientation: In BRET a luciferase serves as donor, and the signal depends on an acceptor being close.

The term Kd denotes the concentration at which binding is half-saturated. A high value points to weaker binding. For CA200645, the Kd worked out at 110 nM.
